Experimental data published in ChEMBL document CHEMBL3860064, “Synthesis of (benzimidazol-2-yl)aniline derivatives as glycogen phosphorylase inhibitors” (Bioorg Med Chem, 2016).

Assays:
[1] = molecular target: T1, Glycogen phosphorylase, muscle form (Oryctolagus cuniculus) (UniProt P00489); assay: Inhibition of rabbit skeletal muscle glycogen phosphorylase b assessed as inorganic phosphate release using glucose-1-phosphate as substrate at pH 6.8 at 1000 uM
T1 sequence (whole entry): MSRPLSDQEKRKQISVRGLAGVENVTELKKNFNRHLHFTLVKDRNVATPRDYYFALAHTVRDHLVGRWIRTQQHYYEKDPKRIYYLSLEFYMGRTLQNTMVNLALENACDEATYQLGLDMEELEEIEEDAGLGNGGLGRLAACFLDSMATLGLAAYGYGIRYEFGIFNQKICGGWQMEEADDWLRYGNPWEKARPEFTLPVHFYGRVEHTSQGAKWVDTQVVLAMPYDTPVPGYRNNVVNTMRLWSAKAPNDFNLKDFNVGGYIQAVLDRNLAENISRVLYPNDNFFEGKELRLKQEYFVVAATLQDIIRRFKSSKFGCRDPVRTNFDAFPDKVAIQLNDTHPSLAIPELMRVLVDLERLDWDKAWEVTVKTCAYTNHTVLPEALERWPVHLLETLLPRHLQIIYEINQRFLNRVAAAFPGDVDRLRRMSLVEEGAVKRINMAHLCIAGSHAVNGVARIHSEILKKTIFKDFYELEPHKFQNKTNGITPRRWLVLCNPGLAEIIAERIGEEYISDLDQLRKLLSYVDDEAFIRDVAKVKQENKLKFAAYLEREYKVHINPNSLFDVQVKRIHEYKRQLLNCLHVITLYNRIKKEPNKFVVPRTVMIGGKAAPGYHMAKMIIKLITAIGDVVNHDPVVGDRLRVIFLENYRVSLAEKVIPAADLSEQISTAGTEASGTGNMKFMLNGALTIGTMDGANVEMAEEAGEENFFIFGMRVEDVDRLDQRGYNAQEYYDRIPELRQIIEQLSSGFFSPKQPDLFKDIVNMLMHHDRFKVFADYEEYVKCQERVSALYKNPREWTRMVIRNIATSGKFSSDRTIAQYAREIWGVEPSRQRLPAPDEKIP

[2] = Solubility of the compound in water; format: physicochemical; conditions: buffer
[3] = molecular target: T1, Glycogen phosphorylase, muscle form (Oryctolagus cuniculus); assay: Inhibition of rabbit skeletal muscle glycogen phosphorylase b assessed as inorganic phosphate release using glucose-1-phosphate as substrate at pH 6.8 at 500 uM
[4] = molecular target: T2, Glycogen phosphorylase, muscle form (Oryctolagus cuniculus, UniProt P00489); assay: Inhibition of rabbit skeletal muscle glycogen phosphorylase b assessed as reduction in inorganic phosphate release using glucose-1-phosphate as substrate at pH 6.8
T2 sequence (P00489 whole entry): T1 sequence (whole entry)

[5] = Aqueous solubility of the compound in 20% DMSO; format: physicochemical; conditions: buffer
[6] = molecular target: T1, Glycogen phosphorylase, muscle form (Oryctolagus cuniculus); assay: Inhibition of rabbit skeletal muscle glycogen phosphorylase b assessed as inorganic phosphate release using glucose-1-phosphate as substrate at pH 6.8 at 300 uM
[7] = molecular target: T3, Glycogen phosphorylase, liver form (Homo sapiens, UniProt P06737); assay: Inhibition of human recombinant liver glycogen phosphorylase A expressed in baculovirus infected Sf9 insect cells assessed as release of phosphate from glucose-1- phosphate in presence of 7.5 mM glucose by malachite green based assay
T3 sequence (P06737 whole entry): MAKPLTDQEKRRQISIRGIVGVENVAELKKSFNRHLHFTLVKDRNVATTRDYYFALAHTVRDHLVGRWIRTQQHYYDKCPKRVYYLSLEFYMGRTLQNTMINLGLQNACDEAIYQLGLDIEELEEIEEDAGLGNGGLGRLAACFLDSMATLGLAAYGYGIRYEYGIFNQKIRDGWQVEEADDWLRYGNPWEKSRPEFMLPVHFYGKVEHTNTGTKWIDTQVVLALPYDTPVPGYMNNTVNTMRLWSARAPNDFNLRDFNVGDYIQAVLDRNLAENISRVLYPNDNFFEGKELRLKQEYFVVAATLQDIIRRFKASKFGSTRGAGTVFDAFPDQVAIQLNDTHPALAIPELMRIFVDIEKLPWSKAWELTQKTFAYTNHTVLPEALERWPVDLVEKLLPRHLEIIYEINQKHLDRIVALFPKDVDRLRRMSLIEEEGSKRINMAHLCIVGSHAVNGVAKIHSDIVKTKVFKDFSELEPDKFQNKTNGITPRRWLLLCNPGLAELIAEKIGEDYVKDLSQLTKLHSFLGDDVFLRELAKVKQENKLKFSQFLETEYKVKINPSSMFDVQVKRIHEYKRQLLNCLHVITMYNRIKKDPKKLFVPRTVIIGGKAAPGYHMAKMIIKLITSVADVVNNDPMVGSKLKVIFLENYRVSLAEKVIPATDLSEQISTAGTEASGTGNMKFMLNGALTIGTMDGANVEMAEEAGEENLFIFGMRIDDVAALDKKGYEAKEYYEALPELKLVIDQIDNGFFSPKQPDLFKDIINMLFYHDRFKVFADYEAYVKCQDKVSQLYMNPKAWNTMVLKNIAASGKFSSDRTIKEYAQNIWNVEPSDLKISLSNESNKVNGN

[8] = molecular target: T1, Glycogen phosphorylase, muscle form (Oryctolagus cuniculus); assay: Inhibition of rabbit skeletal muscle glycogen phosphorylase b assessed as inorganic phosphate release using glucose-1-phosphate as substrate at pH 6.8 at 200 uM
[9] = molecular target: T2, Glycogen phosphorylase, muscle form; assay: Inhibition of rabbit muscle glycogen phosphorylase b using […] preincubated for 60 mins followed by substrate addition in presence of glycogen
[10] = molecular target: T1, Glycogen phosphorylase, muscle form (Oryctolagus cuniculus); assay: Inhibition of rabbit skeletal muscle glycogen phosphorylase b assessed as inorganic phosphate release using glucose-1-phosphate as substrate at pH 6.8 at 250 uM

Row | SMILES | solubility [2] | solubility [5] | also measured
1 | O=C(O)/C=C/C(=O)Nc1ccc(-c2nc3ccccc3[nH]2)cc1 | Insoluble |  | inhibition [1]: 45%
2 | O=c1[nH][nH]c(O)c1/N=N/c1ccc(-c2nc3ccccc3[nH]2)cc1 | Insoluble |  | inhibition [3]: 29.4%
3 | O=C1N=C(Nc2ccc(-c3nc4ccccc4[nH]3)cc2)CN1 | Insoluble |  | 
4 | O=S(=O)(Nc1ccc(-c2nc3ccccc3[nH]2)cc1)c1ccccc1 | Insoluble | Soluble | IC50 [4]: 324 µM
5 | Cc1ccc(S(=O)(=O)Nc2ccc(-c3nc4ccccc4[nH]3)cc2)cc1 | Insoluble | Soluble | inhibition [3]: 20.7%
6 | O=C(O)c1cc(Nc2ccc(-c3nc4ccccc4[nH]3)cc2)n(-c2ccccc2)n1 | Insoluble |  | inhibition [6]: 25%
7 | S=C1N=C(Nc2ccc(-c3nc4ccccc4[nH]3)cc2)CNN1 | Insoluble | Soluble | 
8 | c1ccc2[nH]c(-c3ccc(NC4=NCCNC4)cc3)nc2c1 | Insoluble |  | 
9 | Cc1n[nH]c(C)c1/N=N/c1ccc(-c2nc3ccccc3[nH]2)cc1 | Insoluble |  | 
10 | O=C(NC(=O)c1cc(F)c(F)cc1Cl)Nc1ccsc1-c1n[nH]c(=O)o1 |  |  | IC50 [7]: 30 µM
11 | CN(C)C(=O)[C@H](O)[C@H](Cc1ccccc1)NC(=O)c1cc2cc(Cl)ccc2[nH]1 |  |  | IC50 [7]: 0.082 µM
12 | Nc1ccc(-c2nc3ccccc3[nH]2)cc1 | Insoluble |  | 
13 | O=C(O)c1cc(Nc2ccc(-c3nc4ccccc4[nH]3)cc2)[nH]n1 | Insoluble | Insoluble | 
14 | Cc1nn(-c2ccccc2)c(C)c1/N=N/c1ccc(-c2nc3ccccc3[nH]2)cc1 | Insoluble |  | 
15 | S=C1N=C(Nc2ccc(-c3nc4ccccc4[nH]3)cc2)CN1 | Insoluble |  | 
16 | Oc1nc(=S)[nH]c(O)c1/N=N/c1ccc(-c2nc3ccccc3[nH]2)cc1 | Insoluble |  | inhibition [8]: 16.1%
17 | O=[N+]([O-])c1ccccc1S(=O)(=O)Nc1ccc(-c2nc3ccccc3[nH]2)cc1 | Insoluble | Soluble | IC50 [4]: 358 µM
18 | CCOC(=O)C(=NNc1ccc(-c2nc3ccccc3[nH]2)cc1)C(=O)OCC | Insoluble | Soluble | 
19 | O=C(N[C@@H](Cc1ccc(F)cc1)C(=O)C(=O)N1CCC(O)CC1)c1cc2cc(Cl)ccc2[nH]1 |  |  | IC50 [7]: 0.2 µM; IC50 [9]: 0.178 µM
20 | CC(=O)C(/N=N/c1ccc(-c2nc3ccccc3[nH]2)cc1)=C(/C)O | Insoluble | Soluble | 
21 | O=C1N=C(Nc2ccc(-c3nc4ccccc4[nH]3)cc2)CNN1 | Insoluble |  | IC50 [4]: 437 µM
22 | O=C(O)c1cc(Nc2ccc(-c3nc4ccccc4[nH]3)cc2)n(-c2ccc([N+](=O)[O-])cc2)n1 | Insoluble |  | inhibition [10]: 8.1%
23 | CC(=O)C/C(C)=N/c1ccc(-c2nc3ccccc3[nH]2)cc1 | Insoluble | Soluble | inhibition [8]: 7%
24 | N=C1N=C(Nc2ccc(-c3nc4ccccc4[nH]3)cc2)CN1 | Insoluble |  | 
25 | O=C(CCl)Nc1ccc(-c2nc3ccccc3[nH]2)cc1 | Insoluble | Soluble | 
26 | Cc1nn(-c2ccc([N+](=O)[O-])cc2)c(C)c1/N=N/c1ccc(-c2nc3ccccc3[nH]2)cc1 | Insoluble |  | IC50 [4]: 532 µM
